# Experiments:
# [1] = test system: DNA alone (PFV^CAAT); test: DTG fluorescence enhancement in the presence of DNA alone; type: binding, prototype foamy virus (PFV); details: 1 mM Mg2+
# Protocol: (§1) The three other conditions (i→iii) led to superimposable spectra. To note, the presence of IN/DNA complexes accounts for light scattering on the blue side of the spectrum.
# (§2) All experiments were performed in the presence of 1 mM Mg^2+ (see Supplementary Fig. S4 for [Mg^2+] = 10 mM). λex = 345 nm and PMT = 980 V (Δλex = Δλem = 5 nm). […] Contributions of Raman and Rayleigh scattering were eliminated in the inset spectrum: (viii) = (iv)–(vii) where (vii) represents the proper spectrum of Mg^2+-DTG in the context of the binary IN-DNA complex. […] [Mg^2+] = 1 mM. Inset: fluorescence intensity (375–385 nm) as a function of (IN + DNA). The arrows indicate the intensity level after addition of 500 mM NaCl. Emission spectra are representative of 3 independent experiments for each condition of (IN + DNA). […] (E) Measurement of the binary IN-DNA complex formation. The formation of binary complexes was performed by monitoring the fluorescence anisotropy (r) of DNA (Fl-PFV^CAAT) under similar experimental conditions of the DTG-binding assay (panels C-D). Top, varying stoichiometric concentrations of IN and DNA were mixed and the r parameter was monitored. […]
# (§3) Fluorescence excitation and emission spectra of INSTIs were recorded on a Eclipse (Varian) spectrofluorimeter equipped with two polarizers for anisotropy measurements and a thermostated cell holder, using 80 µl solutions placed in micro cells (Hellma). […]
# [2] = target: T1, G187R IN^PFV-DNA complex (Human spumaretrovirus, UniProt P14350, G938R/G968S/S969G); test: DTG fluorescence anisotropy binding assay, G187R mutant; set-up: species or system prototype foamy virus (PFV); details: 10 mM Mg2+, DTG 0.6 μM, [IN]=[DNA]=2.4 μM
# T1 construct: The pET-IN-PFV plasmid containing the full-length IN gene was used for mutagenesis; His; made in house; host or cells: E. coli BL21-CodonPlus (DE3)-RIPL
# Protocol: (§4) The fluorescence intensity was monitored as a function of (IN + DNA) and plotted as a function of the binary IN-DNA complex concentration (measured as explained in Fig. 2E legend). […] (B) The percentage of ternary complexes was calculated using DTG fluorescence enhancement. […] The graphs in panels A-B show representative data of three independent experiments. […] "DTG" is taken from the y-axis title of the same panel.
# (§5) To note, Mg^2+ is dispensable for the overall DNA-binding step of IN[32],[43]–[45] and thus, the loss of Mg^2+ chelation is not contradictory with results showing that catalytic mutants bind equally well to DNA and in a similar manner than wt IN (Supplementary Fig. S6). However, G187R cannot be considered as a catalytic mutant since it sustains a significant ST activity although weak (≈10% of the wt activity; Fig. 6).
# (§6) Fluorescence excitation and emission spectra of INSTIs were recorded on a Eclipse (Varian) spectrofluorimeter equipped with two polarizers for anisotropy measurements and a thermostated cell holder, using 80 µl solutions placed in micro cells (Hellma). […] The steady-state fluorescence anisotropy was calculated using: r = (IVV–G x IVH)/(IVV + 2GxIVH) where IVV and IVH correspond to vertical and horizontal components, respectively, when the sample is excited with vertically polarized light. […]
# [3] = target: T2, S217K IN^PFV-DNA complex (Human spumaretrovirus, UniProt P14350, G968K/S969G); test: Fluorescence enhancement DTG-binding assay, S217K mutant; set-up: species or system prototype foamy virus (PFV); details: DTG 0.3 μM, 1 mM Mg2+
# T2 construct: The pET-IN-PFV plasmid containing the full-length IN gene was used for mutagenesis; His; made in house; host or cells: E. coli BL21-CodonPlus (DE3)-RIPL
# Protocol: The fluorescence intensity was monitored as a function of (IN + DNA) and plotted as a function of the binary IN-DNA complex concentration (measured as explained in Fig. 2E legend). […] The graphs in panels A-B show representative data of three independent experiments.
# Fluorescence excitation and emission spectra of INSTIs were recorded on a Eclipse (Varian) spectrofluorimeter equipped with two polarizers for anisotropy measurements and a thermostated cell holder, using 80 µl solutions placed in micro cells (Hellma). Drug, IN and DNA concentrations, excitation/emission slit settings as well as the photomultiplier tube (PMT) voltage are specified in figure legends. The intensity value was corrected from the inner filter effect. The steady-state fluorescence anisotropy was calculated using: r = (IVV–G x IVH)/(IVV + 2GxIVH) where IVV and IVH correspond to vertical and horizontal components, respectively, when the sample is excited with vertically polarized light. G represents the correction factor for the difference in the monochromator transmission between // and ⊥ polarized components: G = IHV/IHH. All experiments were performed at 25 °C in buffer A: 20 mM Tris pH 7.2, 50 mM NaCl, 1 mM DTT and 10% (v/v) DMSO.
# [4] = test system: S217H IN^PFV mutant; details: S217H versus wt; cited from earlier work
# [5] = target: T3, IN alone (IN^PFV) (Human spumaretrovirus, UniProt P14350); test: DTG fluorescence enhancement in the presence of IN alone; type: binding, prototype foamy virus (PFV); details: 1 mM Mg2+
# T3 construct: The full-length wt IN^PFV, the three single mutants of the catalytic triad; His; made in house; host or cells: E. coli BL21-CodonPlus (DE3)-RIPL
# Protocol: as §1, §2, §3
# [6] = target: T4, D128N IN^PFV-DNA complex (Human spumaretrovirus, UniProt P14350, D879N/G968S/S969G); test: Fluorescence enhancement DTG-binding assay, D128N catalytic mutant; set-up: species or system prototype foamy virus (PFV); details: 1 mM Mg2+
# T4 construct: The pET-IN-PFV plasmid containing the full-length IN gene was used for mutagenesis; His; made in house; host or cells: E. coli BL21-CodonPlus (DE3)-RIPL
# Protocol: as §4, §5, §6
structure (smiles),measurement,setting,value
"C[C@@H]1CCO[C@H]2Cn3cc(C(=O)NCc4ccc(F)cc4F)c(=O)c(O)c3C(=O)N12 [DTG, dolutegravir]",DTG binding to DNA alone,[1],no DTG binding
same,DTG binding to G187R by DTG anisotropy,[2],DTG-binding defects
same,DTG binding to S217K,[3],No binding
same,decrease in DTG susceptibility,[4],2–3 fold
same,DTG binding to IN alone,[5],no DTG binding
same,DTG binding to D128N catalytic mutant,[6],loss of DTG-binding

# Source: PMC5656594 (Scientific Reports, 2017)
